From US8119667B2, “Carbonates of fenicol antibiotics” (Schering-Plough Animal Health Corporation, priority 2005, dated 2012)
Where two headings read alike, the source gives them in different places.

Key:
[1] = In vivo release of florfenicol: plasma levels after prodrug administration to rats; set-up: species or system Rat; settings: IV
Procedure: The pharmacokinetic profile of active antibiotic after prodrug administration, in vivo, was determined, as follows: • 1. In vivo release of active antibiotic confirmed in two different animal species: • The prodrug compound of Example 18 was administered by an intravenous (“IV”) route to rat and cattle subjects, followed by determination of florfenicol concentrations in the plasma collected over time. • The data of Table 8, below, illustrates the plasma levels of florfenicol that resulted following IV administration of the prodrug compound of Example 18, to both rat and cattle. • 4. Time of release of active moiety: • a.

[2] = Syringeability of dosing solutions (dripping-syringe method); assay type: physicochemical; settings: 418 mg/ml (35% weight by volume florfenicol); Triacetin/benzyl alcohol - 2:1; 15° C.
[3] = as above; assay type: physicochemical
Procedure: Table 4, below, provides evaluations of the syringeability of dosing solutions of selected florfenicol benzylic carbonate prodrugs at concentrations equivalent to 300 mg/ml florfenicol (30% weight/volume).
High concentrations of fenicol or fenicol drug contained in a fenicol prodrug are often necessary for convenient administration of the necessary amount of the desired amount of the antibiotic. Due to the limited solubility of fenicols in many organic solvents or mixtures of solvents acceptable for injectable formulations the choice of solvents for preparation of highly concentrated florfenicol solutions is limited. As a result highly concentrated solutions of fenicol drugs in organic solvents or solvent mixtures may become highly viscous and difficult to administer by a syringe. Therefore the ability of fenicol benzylic carbonate prodrugs to dissolve in a wider range of organic solvents or mixtures of solvents acceptable for injectable formulations offered the potential to prepare highly concentrated solutions for injections with lower viscosity. […] Test solutions of florfenicol benzylic carbonates containing concentrations of florfenicol (mg/mL) equivalent to the concentration present in Nuflor® formulation were prepared. Syringeabilities of the solutions were evaluated by means of the “dripping syringe” method in which the dripping times (sec) of equal volumes of such solutions under free gravitational flow conditions from a vertically positioned syringe were measured at 15° C. After removing the plunger from a 5 ml polyethylene disposable syringe (5 ml Luer, Norm-Ject Zentrish/Henke Saas Wolf GMBH) and fitting the syringe with a disposable needle (B-D® 16G1 Precision Glide/BentonDickinson & CO) the test solutions were loaded from the top into the syringe and the time necessary for the free flow of 2 mL of solution (between 3 ml and 1 ml marks) was recorded in triplicate. The syringeabilities relative to Nuflor® were calculated by dividing the dripping time for the test solutions (entries 1-12) by the dripping time measured for the commercial sample of Nuflor® formulation (entry 13) As it is evident from the results in Table 4 the syringeabilities of tested solutions containing benzyl alcohol as viscosity diluent had relative syringeabilities <1.00 and were therefore better than Nuflor® (30% weight/volume florfenicol solution in propylene glycol/polyethylene glycol 300/2-methyl pyrolidinone). Due to their better syringeability these solutions represent more favorable formulations for injectable delivery of florfenicol. Solution of the florfenicol benzylic carbonate of the example 2 in triacetin/2-pyrolidinone—1/1 lacking the benzyl alcohol viscosity diluent was the only solution with syringeability poorer that than that of Nuflor® (entry 5).

[4] = Solubility in triacetin/benzyl alcohol 2:1 (volume/volume) solvent mixture; assay type: physicochemical; settings: 20° C.
Procedure: Florfenicol parent drug was not soluble in triacetin/benzyl alcohol 2:1 (volume/volume) even at concentrations as low as 10% (weight/volume). […] The combination of prodrug of Example 14 at 275 mg/ml and florfenicol at 100 mg/ml was soluble in triacetin/benzyl alcohol 2:1 (volume/volume) and provided a stable solution with 30% (weight/volume) content of florfenicol (Table 4, supra, entry 12).

[5] = In vivo release of florfenicol: plasma levels after prodrug administration to cattle; settings: for AUC: bovine, plasma, sc, 40 mg/kg
Procedure: The pharmacokinetic profile of active antibiotic after prodrug administration, in vivo, was determined, as follows: • 1. In vivo release of active antibiotic confirmed in two different animal species: • The prodrug compound of Example 18 was administered by an intravenous (“IV”) route to rat and cattle subjects, followed by determination of florfenicol concentrations in the plasma collected over time. • The data of Table 8, below, illustrates the plasma levels of florfenicol that resulted following IV administration of the prodrug compound of Example 18, to both rat and cattle. • 2. Active antibiotic is released from the prodrug irrespective of route of administration of the prodrug: • The data of Table 9, below, illustrates the plasma levels of florfenicol that resulted following administration of the prodrug compound of Example 2, by two different routes, i.e., IV and subcutaneous (“SC”). • 3. A dose-dependant increase in the release of active moiety: • The data of table 10, below, confirms a dose-dependent increase in the plasma levels of active antibiotic (florfenicol) following administration of rising doses of prodrug compound of Example 2. • 4. Time of release of active moiety: • a. […] The data of tables 13 and 14, below, confirms that the active antibiotic is quickly released from the prodrug compound of Example 2, when administered by the IV and SC routes in cattle. The release kinetics of the compound of Example 2 were compared with administration in a formulation with a triacetin/benzyl alcohol (ratio of 2:1 wt/vol) and with administration in a formulation of triacetin/2-pyrrolidinone (ratio of 2:1 wt/vol). The study was conducted in cattle (n=3).

[6] = tested on: naturally occurring bovine respiratory disease (BRD); experiment: Therapeutic efficacy of a single SC dose in cattle with naturally occurring bovine respiratory disease; assay type: in vivo
From the text: Therapeutic efficacy of a single dose of Nuflor® (Schering-Plough Animal Health) was compared with a single dose of the prodrug compound of Example 2 after SC administration in cattle suffering from naturally occurring bovine respiratory disease (BRD).

[7] = 358 mg/ml, 2-pyrolidinone/benzyl alcohol - 1:1, 15° C.
[8] = 358 mg/ml, Triacetin/2-pyrolidinone - 1:1, 15° C.
[9] = 358 mg/ml, Triacetin/benzyl alcohol - 2:1.5, 15° C.

CCOC(=O)O[C@H](c1ccc(S(C)(=O)=O)cc1)[C@@H](CF)NC(=O)C(Cl)Cl [Example 2, (1R,2S)-2-(2,2-dichloroacetamido)-3-fluoro-1-(4-(methylsulfonyl)phenyl)propyl ethyl carbonate]
time of release of active antibiotic (florfenicol) after administration [1]: less than half an hour
Syringeability measurement: Dripping time [2]: 207 ± 3 s
Syringeability measurement: Relative to NUFLOR [2]: 0.89
Syringeability measurement: Dripping time [3, 7]: 108 ± 1 s
Syringeability measurement: Relative to NUFLOR [3, 7]: 0.46
Syringeability measurement: Dripping time [3, 8]: 268 ± 4 s
Syringeability measurement: Relative to NUFLOR [3, 8]: 1.15
Syringeability measurement: Dripping time [3, 9]: 97 ± 1 s
Syringeability measurement: Relative to NUFLOR [3, 9]: 0.42
Syringeability measurement: Relative to NUFLOR ([3]; prodrug concentration equivalent to 300 mg/ml florfenicol, Triacetin/benzyl alcohol - 2:1 (vol/vol), 15° C.): 0.55
Syringeability measurement: Dripping time ([3]; prodrug concentration equivalent to 300 mg/ml florfenicol, Triacetin/benzyl alcohol - 2:1 (vol/vol), free flow of 2 mL at 15° C.): 128 ± 7 s
melting point: 110 to 112 °C
Solubility at selected concentration of contained florfenicol ([4]; 10% weight/volume florfenicol): soluble
Solubility at selected concentration of contained florfenicol ([4]; 20% weight/volume florfenicol): soluble
Solubility at selected concentration of contained florfenicol ([4]; 25% weight/volume florfenicol): soluble
Solubility at selected concentration of contained florfenicol ([4]; 30% weight/volume florfenicol): soluble
Solubility at selected concentration of contained florfenicol ([4]; 35% weight/volume florfenicol): soluble
Solubility at selected concentration of contained florfenicol ([4]; 37% weight/volume florfenicol): soluble
Solubility at selected concentration of contained florfenicol ([4]; 40% weight/volume florfenicol): insoluble
time of release of active antibiotic (florfenicol) after administration ([5]; IV): less than half an hour
AUC ([5]; subcutaneous administration, read-out: Total Average AUC of the compound of Example 2 (unchanged prodrug)): 38000 ng·h/mL
AUC ([5]; subcutaneous administration, read-out: Total Average AUC of the compound of Example 2 as Florfenicol Equivalent): 30400 ng·h/mL
converted to Florfenicol once absorbed from SC site ([5]; subcutaneous administration): 83.5%
Treatment Failure (on day 10) ([6]; single S/C dose equivalent to 40 mg/kg of florfenicol (Nuflor 40 mg/kg; Example 2 48 mg/kg), animals failing out of animals treated): 5 out of 24
Temp. (day 0) ([6]; single S/C dose equivalent to 40 mg/kg of florfenicol (Nuflor 40 mg/kg; Example 2 48 mg/kg), day 0): 40.4 °C
Temp. (day 3) ([6]; single S/C dose equivalent to 40 mg/kg of florfenicol (Nuflor 40 mg/kg; Example 2 48 mg/kg), day 3): 38.8 °C
Temp. (day 10) ([6]; single S/C dose equivalent to 40 mg/kg of florfenicol (Nuflor 40 mg/kg; Example 2 48 mg/kg), day 10): 38.7 °C
efficacy compared with Nuflor ([6]; single SC dose, cattle with BRD): comparable
